Measurements taken from US5747456A, “Continuous low-dose administration of parathyroid hormone or its agonist” (Beth Israel Deaconess Medical Center, priority 1996, dated 1998).
Non-standard residues stand in square brackets, D forms with d. Residues, ends and D or L forms follow the SMILES beside them. Nle = CCCC[C@H](N)C(=O)O

Key:
[1] = test system: adenylate cyclase in SaOS-2 B10 cells; test: Adenylate cyclase activity (cyclic AMP) in SaOS-2 B10 cells; type: cell-based, human; details: 1 mM IBMX, 5 min incubation with analog, read-out: EC50 (half maximal stimulation of adenylate cyclase)
Method: The adenylate cyclase activity induced by each of Analogs I-V was also measured in SaOS-2 B10 cells as described previously (Rodan et al. 1983 J. Clin. Invest. 72;1511; Goldman et al. 1988 Endocrinology 123, 1468). Confluent SaOS-2 B10 cells in 24 wells plates were incubated 0.5 μCi[^3 H]adenine (26.9 Ci/mmol, New England Nuclear, Boston, Mass.) in fresh medium at 37° C. for 2 hrs, and washed twice with Hank's solution. The cells were treated with 1 mM IBMX [isobutylmethylxanthine, Sigma, St. Louis, Mo.] in fresh medium for 15 min, and a tested PTH analog was added to the medium to incubate for 5 min. The reaction was stopped by the addition of 1.2M TCA followed by sample neutralization with 4N KOH. Cyclic AMP was isolated by the two-column chromatographic method (see Salomon et al. 1974 Anal. Biochem. 58;541). The radioactivity was counted in a scintillation counter (Liquid scintillation counter 2200CA, PACKARD, Downers Grove, Ill.).

[2] = target: T1, PTH/PTHrP receptor in SaOS-2 B10 cells (Homo sapiens, UniProt Q03431); test: Competition binding of mono-125I-[Nle8,18,Tyr34(3-I125)]bPTH1-34 NH2 to SaOS-2 B10 cells; details: 2 hrs at room temperature, read-out: IC50 (half maximal inhibition of binding of mono-125I-[Nle8,18,Tyr34(3-I125)]bPTH1-34 NH2)
T1 construct: endogenous in cells; host or cells: SaOS-2 B10 cells (subclone of the human osteosarcoma line SaOS-2)
T1 sequence (Q03431 27-593): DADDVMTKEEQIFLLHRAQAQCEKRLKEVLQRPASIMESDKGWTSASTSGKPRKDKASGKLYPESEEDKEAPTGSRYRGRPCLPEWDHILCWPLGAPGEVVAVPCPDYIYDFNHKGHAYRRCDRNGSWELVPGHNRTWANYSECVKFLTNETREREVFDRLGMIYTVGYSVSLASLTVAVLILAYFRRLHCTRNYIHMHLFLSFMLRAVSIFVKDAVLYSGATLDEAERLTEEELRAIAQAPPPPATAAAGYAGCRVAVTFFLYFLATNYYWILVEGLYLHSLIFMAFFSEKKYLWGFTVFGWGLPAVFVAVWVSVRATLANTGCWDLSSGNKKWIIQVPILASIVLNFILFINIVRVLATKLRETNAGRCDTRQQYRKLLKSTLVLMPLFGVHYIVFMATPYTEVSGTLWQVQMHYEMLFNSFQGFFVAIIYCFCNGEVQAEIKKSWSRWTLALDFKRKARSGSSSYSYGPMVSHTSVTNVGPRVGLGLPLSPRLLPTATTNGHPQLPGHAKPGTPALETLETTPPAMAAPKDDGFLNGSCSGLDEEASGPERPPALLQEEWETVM
Method: SaOS-2 B10 cells were maintained in RPMI1640 medium supplemented with 10% fetal bovine serum (FBS) and 2 mM glutamine at 37° C. in a humidified atmosphere of 5% CO2 in air. The medium was changed every three or four days, and the cells were subcultured every week by trypsinization.
SaOs-2 B10 cells were maintained for four days after they had reached confluence. The medium was replaced with 5% FBS […] medium and incubated for 2 hrs at room temperature with 10×10^4 cpm mono-^125 -I-[Nle^8,18,Tyr^34 (3-I^125)]bPTH1-34 NH2 in the presence or absence of a competing tested PTH agonist. The cells were washed four times with ice-cold PBS and lysed with 0.1M NaOH, and the radioactivity associated with the cells was counted in a scintillation counter. Synthesis of the radiolabelled [Nle8,18. Tyr^34 (3-I^125)]bPTH1-34 NH2 was carried out as described in Goldman M E et al., Endocrinology, 1988, 123, 1468-1475.
The binding assay was conducted on Analogs I-IV and Analog V (i.e., [Nle^8, Nle^18, Tyr^34 ]bPTH1-34 NH2).

| EC50 [1] [nM] | IC50 [2] [nM] | SMILES |
| --- | --- | --- |
| 1.5 | 1.5 | CCCC[C@H](NC(=O)[C@H](CO)NC(=O)[C@H](CO)NC(=O)[C@H](CC(C)C)NC(=O)[C@H](Cc1c[nH]cn1)NC(=O)[C@H](CCCCN)NC(=O)CNC(=O)[C@H](CC(C)C)NC(=O)[C@H](CC(N)=O)NC(=O)[C@H](Cc1c[nH]cn1)NC(=O)[C@H](CCCC)NC(=O)[C@H](Cc1ccccc1)NC(=O)[C@H](CCC(N)=O)NC(=O)[C@@H](NC(=O)[C@H](CCC(=O)O)NC(=O)[C@H](CO)NC(=O)[C@@H](NC(=O)[C@H](C)N)C(C)C)[C@@H](C)CC)C(=O)N[C@@H](CCC(=O)O)C(=O)N[C@@H](CCCNC(=N)N)C(=O)N[C@H](C(=O)N[C@@H](Cc1ccccc1)C(=O)N[C@@H](Cc1c[nH]c2ccccc12)C(=O)N[C@@H](CC(C)C)C(=O)N[C@@H](CCCNC(=N)N)C(=O)N[C@@H](CCCCN)C(=O)N[C@@H](CCCCN)C(=O)N[C@@H](CC(C)C)C(=O)N[C@@H](CCC(N)=O)C(=O)N[C@@H](CC(=O)O)C(=O)N[C@H](C(=O)N[C@@H](Cc1c[nH]cn1)C(=O)N[C@@H](CC(N)=O)C(=O)N[C@@H](Cc1ccc(O)cc1)C(N)=O)C(C)C)C(C)C [Analog I, [Nle^8,18,Phe^22,Tyr^34]bPTH1-34 NH2] (H-AVSEIQF[Nle]HNLGKHLSS[Nle]ERVFWLRKKLQDVHNY-NH2; N-terminus assumed) |
| 2 | 0.6 | CCCC[C@H](NC(=O)[C@H](CO)NC(=O)[C@H](CO)NC(=O)[C@H](CC(C)C)NC(=O)[C@H](Cc1c[nH]cn1)NC(=O)[C@H](CCCCN)NC(=O)CNC(=O)[C@H](CC(C)C)NC(=O)[C@H](CC(N)=O)NC(=O)[C@H](Cc1c[nH]cn1)NC(=O)[C@H](CCCC)NC(=O)[C@H](Cc1ccccc1)NC(=O)[C@H](CCC(N)=O)NC(=O)[C@@H](NC(=O)[C@H](CCC(=O)O)NC(=O)[C@H](CO)NC(=O)[C@@H](NC(=O)[C@H](C)N)C(C)C)[C@@H](C)CC)C(=O)N[C@@H](CCCNC(=N)N)C(=O)N[C@@H](CCCNC(=N)N)C(=O)N[C@H](C(=O)N[C@@H](CCC(=O)O)C(=O)N[C@@H](Cc1c[nH]c2ccccc12)C(=O)N[C@@H](CC(C)C)C(=O)N[C@@H](CCCNC(=N)N)C(=O)N[C@@H](CCCCN)C(=O)N[C@@H](CCCCN)C(=O)N[C@@H](CC(C)C)C(=O)N[C@@H](CCC(N)=O)C(=O)N[C@@H](CC(=O)O)C(=O)N[C@H](C(=O)N[C@@H](Cc1c[nH]cn1)C(=O)N[C@@H](CC(N)=O)C(=O)N[C@@H](Cc1ccc(O)cc1)C(N)=O)C(C)C)C(C)C [Analog II, [Nle^8,18,Arg^19,Tyr^34]bPTH1-34 NH2] (H-AVSEIQF[Nle]HNLGKHLSS[Nle]RRVEWLRKKLQDVHNY-NH2; N-terminus assumed) |
| 0.2 | 0.3 | CCCC[C@H](NC(=O)[C@H](CO)NC(=O)[C@H](CO)NC(=O)[C@H](CC(C)C)NC(=O)[C@H](Cc1c[nH]cn1)NC(=O)[C@H](CCCCN)NC(=O)CNC(=O)[C@H](CC(C)C)NC(=O)[C@H](CC(N)=O)NC(=O)[C@H](Cc1c[nH]cn1)NC(=O)[C@H](CCCC)NC(=O)[C@H](Cc1ccccc1)NC(=O)[C@H](CCC(N)=O)NC(=O)[C@@H](NC(=O)[C@H](CCC(=O)O)NC(=O)[C@H](CO)NC(=O)[C@@H](NC(=O)[C@H](C)N)C(C)C)[C@@H](C)CC)C(=O)N[C@@H](CCC(=O)O)C(=O)N[C@@H](CCCNC(=N)N)C(=O)N[C@@H](CCCNC(=N)N)C(=O)N[C@@H](CCC(=O)O)C(=O)N[C@@H](Cc1c[nH]c2ccccc12)C(=O)N[C@@H](CC(C)C)C(=O)N[C@@H](CCCNC(=N)N)C(=O)N[C@@H](CCCCN)C(=O)N[C@@H](CCCCN)C(=O)N[C@@H](CC(C)C)C(=O)N[C@@H](CCC(N)=O)C(=O)N[C@@H](CC(=O)O)C(=O)N[C@H](C(=O)N[C@@H](Cc1c[nH]cn1)C(=O)N[C@@H](CC(N)=O)C(=O)N[C@@H](Cc1ccc(O)cc1)C(N)=O)C(C)C [Analog III, [Nle^8,18,Arg^21,Tyr^34]bPTH1-34 NH2] (H-AVSEIQF[Nle]HNLGKHLSS[Nle]ERREWLRKKLQDVHNY-NH2; N-terminus assumed) |
| 0.5 | 0.3 | CCCC[C@H](NC(=O)[C@H](CO)NC(=O)[C@H](CO)NC(=O)[C@H](CC(C)C)NC(=O)[C@H](Cc1c[nH]cn1)NC(=O)[C@H](CCCCN)NC(=O)CNC(=O)[C@H](CC(C)C)NC(=O)[C@H](CC(N)=O)NC(=O)[C@H](Cc1c[nH]cn1)NC(=O)[C@H](CCCC)NC(=O)[C@H](Cc1ccccc1)NC(=O)[C@H](CCC(N)=O)NC(=O)[C@@H](NC(=O)[C@H](CCC(=O)O)NC(=O)[C@H](CO)NC(=O)[C@@H](NC(=O)[C@H](C)N)C(C)C)[C@@H](C)CC)C(=O)N[C@@H](CCCNC(=N)N)C(=O)N[C@@H](CCCNC(=N)N)C(=O)N[C@@H](CCCNC(=N)N)C(=O)N[C@@H](CCC(=O)O)C(=O)N[C@@H](Cc1c[nH]c2ccccc12)C(=O)N[C@@H](CC(C)C)C(=O)N[C@@H](CCCNC(=N)N)C(=O)N[C@@H](CCCCN)C(=O)N[C@@H](CCCCN)C(=O)N[C@@H](CC(C)C)C(=O)N[C@@H](CCC(N)=O)C(=O)N[C@@H](CC(=O)O)C(=O)N[C@H](C(=O)N[C@@H](Cc1c[nH]cn1)C(=O)N[C@@H](CC(N)=O)C(=O)N[C@@H](Cc1ccc(O)cc1)C(N)=O)C(C)C [Analog IV, [Nle^8,18,Arg^19,21,Tyr^34]bPTH1-34 NH2] (H-AVSEIQF[Nle]HNLGKHLSS[Nle]RRREWLRKKLQDVHNY-NH2; N-terminus assumed) |
| 2 | 1.5 | CCCC[C@H](NC(=O)[C@H](CO)NC(=O)[C@H](CO)NC(=O)[C@H](CC(C)C)NC(=O)[C@H](Cc1c[nH]cn1)NC(=O)[C@H](CCCCN)NC(=O)CNC(=O)[C@H](CC(C)C)NC(=O)[C@H](CC(N)=O)NC(=O)[C@H](Cc1c[nH]cn1)NC(=O)[C@H](CCCC)NC(=O)[C@H](Cc1ccccc1)NC(=O)[C@H](CCC(N)=O)NC(=O)[C@@H](NC(=O)[C@H](CCC(=O)O)NC(=O)[C@H](CO)NC(=O)[C@@H](NC(=O)[C@H](C)N)C(C)C)[C@@H](C)CC)C(=O)N[C@@H](CCC(=O)O)C(=O)N[C@@H](CCCNC(=N)N)C(=O)N[C@H](C(=O)N[C@@H](CCC(=O)O)C(=O)N[C@@H](Cc1c[nH]c2ccccc12)C(=O)N[C@@H](CC(C)C)C(=O)N[C@@H](CCCNC(=N)N)C(=O)N[C@@H](CCCCN)C(=O)N[C@@H](CCCCN)C(=O)N[C@@H](CC(C)C)C(=O)N[C@@H](CCC(N)=O)C(=O)N[C@@H](CC(=O)O)C(=O)N[C@H](C(=O)N[C@@H](Cc1c[nH]cn1)C(=O)N[C@@H](CC(N)=O)C(=O)N[C@@H](Cc1ccc(O)cc1)C(N)=O)C(C)C)C(C)C [Analog V, [Nle^8, Nle^18, Tyr^34]bPTH1-34 NH2, reference compound] (H-AVSEIQF[Nle]HNLGKHLSS[Nle]ERVEWLRKKLQDVHNY-NH2; N-terminus assumed) |
